Data: patent US10738015B2, “1,3-diaza-spiro-[3.4]-octane derivatives” (priority 2017, dated 2020)
Where two headings read alike, the source gives them in different places.

Experiments:
[1] = molecular target: human nociceptin/orphanin FQ peptide (hNOP) receptor (Homo sapiens (Human), UniProt P41146); assay: hNOP receptor binding assay (SPA)
Description: Human Nociceptin/Orphanin FQ Peptide (hNOP) Receptor Binding Assay
The hNOP receptor binding assay was performed as homogeneous SPA-assay (scintillation proximity assay) using the assay buffer 50 mM TRIS-HCl, 10 mM MgCl2, 1 mM EDTA (pH 7.4). The final assay volume (250 μl/well) included 0.5 nM of [leucyl-^3H]nociceptin as ligand (PerkinElmer Life Sciences. Inc. Boston, Mass. USA) and either test compound in dilution series or 1 μM unlabelled nociceptin for determination of unspecific binding. The test compound was diluted with 25% DMSO in H2O to yield a final 0.5% DMSO concentration which also served as a respective vehicle control. The assay was started by adding wheat germ agglutinin coated SPA beads (GE Healthcare UK Ltd. Buckinghamshire. UK) which had been preloaded with hNOP receptor membranes (PerkinElmer Life Sciences. Inc. Boston, Mass. USA). After incubation for 60 minutes at RT and centrifugation for 20 minutes at 500 rpm the signal rate was measured by means of a 1450 Microbeta Trilux ß-counter (PerkinElmer Life Sciences/Wallac. Turku. Finland). Half-maximal inhibitory concentration (IC50) values reflecting 50% displacement of [^3H]nociceptin-specific receptor binding were calculated by nonlinear regression analysis and Ki values were calculated by using the Cheng-Prusoff equation. (Cheng and Prusoff. 1973).

[2] = molecular target: human mu-opioid peptide (hMOP) receptor (Homo sapiens (Human), UniProt P35372); assay: hMOP receptor binding assay (SPA)
Description: Human Mu-Opioidpeptide (hMOP) Receptor Binding Assay
The hMOP receptor binding assay was performed as homogeneous SPA-assay (scintillation proximity assay) using the assay buffer 50 mM TRIS-HCl (pH 7.4) supplemented with 0.052 mg/ml bovine serum albumin (Sigma-Aldrich Co. St. Louis, Mo.). […] The assay was started by adding wheat germ agglutinin coated SPA beads (GE Healthcare UK Ltd. Buckinghamshire. UK) which had been preloaded with hMOP receptor membranes (PerkinElmer Life Sciences. Inc. Boston, Mass. USA).

[3] = Ki, displacement of [leucyl-3H]nociceptin, hNOP receptor membranes, read-out: hNOP Ki [nM] or % inhibition at 1 μM
[4] = read-out: hMOP Ki [nM] or % inhibition at 1 μM
[5] = Ki, displacement of [3H]naloxone, hMOP receptor membranes, read-out: hMOP Ki [nM] or % inhibition at 1 μM

human mu-opioid peptide (hMOP) receptor, sequence (P35372 whole entry): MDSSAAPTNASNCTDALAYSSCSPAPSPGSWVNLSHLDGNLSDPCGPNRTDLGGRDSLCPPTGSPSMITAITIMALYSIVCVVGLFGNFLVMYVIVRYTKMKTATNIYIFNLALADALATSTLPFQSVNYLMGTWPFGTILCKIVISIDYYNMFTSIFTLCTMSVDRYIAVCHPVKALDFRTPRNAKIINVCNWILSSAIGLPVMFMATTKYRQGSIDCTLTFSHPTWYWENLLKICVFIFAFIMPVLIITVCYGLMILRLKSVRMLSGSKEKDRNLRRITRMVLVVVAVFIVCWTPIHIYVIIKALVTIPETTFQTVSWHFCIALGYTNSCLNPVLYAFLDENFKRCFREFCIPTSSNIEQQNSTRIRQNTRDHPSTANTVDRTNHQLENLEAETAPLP

Compound: CN(C)[C@]1(c2ccccc2)C[C@@]2(CN(CC(N)=O)C(=O)N2)C1 [SC-1, Cis-2-(2-(dimethylamino)-6-oxo-2-phenyl-5,7-diazaspiro[3.4]octan-7-yl)acetamide]
- Ki [1, 3]: 200 nM
- inhibition at 1 µM [2, 4]: 19%

Compound: CN(C)[C@]1(c2ccccc2)C[C@@]2(CN(CC(=O)N3CCS(=O)(=O)CC3)C(=O)N2)C1 [SC-2, cis-2-(dimethylamino)-7-(2-(1,1-dioxidothiomorpholino)-2-oxoethyl)-2-phenyl-5,7-diazaspiro[3.4]octan-6-one]
- Ki [1, 3]: 850 nM
- inhibition at 1 µM [2, 4]: 12%

Compound: COc1nc(C#N)ncc1N1C[C@]2(C[C@](c3ccccc3)(N(C)C)C2)NC1=O [SC-3, Cis-5-(2-(dimethylamino)-6-oxo-2-phenyl-5,7-diazaspiro[3.4]octan-7-yl)-4-methoxypyrimidine-2-carbonitrile]
- Ki [1]: 370 nM

Compound: CN(C)[C@]1(c2ccccc2)C[C@]2(CN(CC(=O)N3CCS(=O)(=O)CC3)C(=O)N2)C1 [SC-4, trans-2-(dimethylamino)-7-(2-(1,1-dioxidothiomorpholino)-2-oxoethyl)-2-phenyl-5,7-diazaspiro[3.4]octan-6-one]
- Ki [1, 3]: 860 nM
- Ki [2, 5]: 15 nM

Compound: COc1nc(C#N)ncc1N1C[C@]2(C[C@@](c3ccccc3)(N(C)C)C2)NC1=O [SC-5, trans-5-(2-(dimethylamino)-6-oxo-2-phenyl-5,7-diazaspiro[3.4]octan-7-yl)-4-methoxypyrimidine-2-carbonitrile]
- Ki [1, 3]: 800 nM
- Ki [2, 5]: 99 nM

Compound: CN(C)[C@]1(c2ccccc2)C[C@@]2(CN(CC(=O)N3CCS(=O)(=O)CC3)C(=O)N2CC2CCC2)C1 [SC-6, Cis-5-(cyclobutylmethyl)-2-(dimethylamino)-7-(2-(1,1-dioxidothiomorpholino)-2-oxoethyl)-2-phenyl-5,7-diazaspiro[3.4]octan-6-one]
- Ki [1]: 1 nM

Compound: CN(C)[C@]1(c2ccccc2)C[C@]2(CN(CC(=O)N3CCS(=O)(=O)CC3)C(=O)N2CC2CCC2)C1 [SC-7, trans-5-(cyclobutylmethyl)-2-(dimethylamino)-7-(2-(1,1-dioxidothiomorpholino)-2-oxoethyl)-2-phenyl-5,7-diazaspiro[3.4]octan-6-one]
- Ki [1, 3]: 230 nM
- Ki [2, 5]: 2 nM

Compound: CN(C)[C@]1(c2ccccc2)C[C@]2(CN(CC(N)=O)C(=O)N2CC2CCC2)C1 [SC-8, cis-2-(5-(cyclobutylmethyl)-2-(dimethylamino)-6-oxo-2-phenyl-5,7-diazaspiro[3.4]octan-7-yl)acetamide]
- Ki [1, 3]: 3 nM
- Ki [2, 5]: 100 nM

Compound: CN(C)[C@]1(c2ccccc2)C[C@]2(CN(CC(N)=O)C(=O)N2CC2CCC2)C1 [SC-9, Trans-2-(5-(cyclobutylmethyl)-2-(dimethylamino)-6-oxo-2-phenyl-5,7-diazaspiro[3.4]octan-7-yl)acetamide]
- Ki [1, 3]: 380 nM
- Ki [2]: 48 nM

Compound: COc1nc(C#N)ncc1N1C[C@]2(C[C@](c3ccccc3)(N(C)C)C2)N(CC2CCC2)C1=O [SC-10, cis-5-(5-(cyclobutylmethyl)-2-(dimethylamino)-6-oxo-2-phenyl-5,7-diazaspiro[3.4]octan-7-yl)-4-methoxypyrimidine-2-carbonitrile]
- Ki [1, 3]: 2 nM
- Ki [2, 5]: 157 nM

Compound: COc1nc(C#N)ncc1N1C[C@]2(C[C@@](c3ccccc3)(N(C)C)C2)N(CC2CCC2)C1=O [SC-11, trans-5-(5-(cyclobutylmethyl)-2-(dimethylamino)-6-oxo-2-phenyl-5,7-diazaspiro[3.4]octan-7-yl)-4-methoxypyrimidine-2-carbonitrile]
- Ki [1, 3]: 99 nM
- Ki [2, 5]: 3 nM

Compound: Cc1nc(N2CCOCC2)ncc1N1C[C@]2(C[C@](c3ccccc3)(N(C)C)C2)NC1=O [SC-12, cis-2-(dimethylamino)-7-(4-methyl-2-morpholinopyrimidin-5-yl)-2-phenyl-5,7-diazaspiro[3.4]octan-6-one]
- Ki [1, 3]: 630 nM
- inhibition at 1 µM [2, 4]: 13%

Compound: Cc1cc(N2CCC2)ncc1N1C[C@]2(C[C@](c3ccccc3)(N(C)C)C2)NC1=O [SC-13, cis-7-(6-(azetidin-1-yl)-4-methylpyridin-3-yl)-2-(dimethylamino)-2-phenyl-5,7-diazaspiro[3.4]octan-6-one]
- Ki [1, 3]: 860 nM
- inhibition at 1 µM [2, 4]: 18%

Compound: Cc1cc(C#N)ncc1N1C[C@]2(C[C@](c3cccc(F)c3)(N(C)C)C2)N(CC2CC2)C1=O [SC-15, cis-5-(5-(cyclopropylmethyl)-2-(dimethylamino)-2-(3-fluorophenyl)-6-oxo-5,7-diazaspiro[3.4]octan-7-yl)-4-methylpicolinonitrile]
- Ki [1]: 13 nM
- Ki [2, 5]: 1330 nM

Compound: Cc1cc(C#N)cnc1N1C[C@]2(C[C@](c3cccc(F)c3)(N(C)C)C2)N(CC2CC2)C1=O [SC-16, Cis-6-(5-(cyclopropylmethyl)-2-(dimethylamino)-2-(3-fluorophenyl)-6-oxo-5,7-diazaspiro[3.4]octan-7-yl)-5-methylnicotinonitrile]
- Ki [1, 3]: 31 nM
- Ki [2, 5]: 1320 nM

Compound: CN(C)[C@]1(c2cccc(F)c2)C[C@@]2(CN(c3ccc(OC(F)(F)F)cn3)C(=O)N2CC2CC2)C1 [SC-18, Cis-5-(cyclopropylmethyl)-2-(dimethylamino)-2-(3-fluorophenyl)-7-(5-(trifluoromethoxy)pyridin-2-yl)-5,7-diazaspiro[3.4]octan-6-one]
- Ki [1, 3]: 55 nM
- Ki [2, 5]: 805 nM

Compound: Cc1cc(N2CCOCC2)ncc1N1C[C@]2(C[C@](c3ccccc3)(N(C)C)C2)NC1=O [SC-19, Cis-2-(dimethylamino)-7-(4-methyl-6-morpholinopyridin-3-yl)-2-phenyl-5,7-diazaspiro[3.4]octan-6-one]
- Ki [1, 3]: 1810 nM
- Ki [2, 5]: 5890 nM

Compound: Cc1cc(C(C)(C)O)ncc1N1C[C@]2(C[C@](c3ccccc3)(N(C)C)C2)NC1=O [SC-20, Cis-2-(dimethylamino)-7-(6-(2-hydroxypropan-2-yl)-4-methylpyridin-3-yl)-2-phenyl-5,7-diazaspiro[3.4]octan-6-one]
- Ki [1, 3]: 1160 nM
- Ki [2, 5]: 5840 nM

Compound: Cc1cc(C(C)(C)O)ccc1N1C[C@]2(C[C@](c3ccccc3)(N(C)C)C2)NC1=O [SC-21, Cis-2-(dimethylamino)-7-(4-(2-hydroxypropan-2-yl)-2-methylphenyl)-2-phenyl-5,7-diazaspiro[3.4]octan-6-one]
- Ki [1, 3]: 775 nM
- Ki [2, 5]: 3580 nM

Compound: Cc1cc(C(F)F)ncc1N1C[C@]2(C[C@](c3cccc(F)c3)(N(C)C)C2)NC1=O [SC-22, cis-7-(6-(difluoromethyl)-4-methylpyridin-3-yl)-2-(dimethylamino)-2-(3-fluorophenyl)-5,7-diazaspiro[3.4]octan-6-one]
- Ki [1, 3]: 380 nM
- inhibition at 1 µM [2, 4]: 11%

Compound: CN(C)[C@]1(c2cccc(F)c2)C[C@@]2(CN(c3ccc(OC(F)(F)F)cn3)C(=O)N2CC2(F)COC2)C1 [SC-23, Cis- -2-(dimethylamino)-5-((3-fluorooxetan-3-yl)methyl)-2-(3-fluorophenyl)-7-(5-(trifluoromethoxy)pyridin-2-yl)-5,7-diazaspiro[3.4]octan-6-one]
- Ki [1, 3]: 25 nM
- Ki [2, 5]: 545 nM

Compound: Cc1cc(C(F)F)ncc1N1C[C@]2(C[C@](c3cccc(F)c3)(N(C)C)C2)N(CC2CC2)C1=O [SC-24, Cis-5-(cyclopropylmethyl)-7-(6-(difluoromethyl)-4-methylpyridin-3-yl)-2-(dimethylamino)-2-(3-fluorophenyl)-5,7-diazaspiro[3.4]octan-6-one]
- Ki [1, 3]: 23 nM
- Ki [2, 5]: 1180 nM

Compound: CN(C)[C@]1(c2cccc(F)c2)C[C@@]2(CN(c3ccc(OC(F)(F)F)cn3)C(=O)N2CC2(F)CC2)C1 [SC-26, Cis-2-(dimethylamino)-5-((1-fluorocyclopropyl)methyl)-2-(3-fluorophenyl)-7-(5-(trifluoromethoxy)pyridin-2-yl)-5,7-diazaspiro[3.4]octan-6-one]
- Ki [1, 3]: 91 nM
- Ki [2, 5]: 1020 nM

Compound: CN(C)[C@]1(c2cccc(F)c2)C[C@@]2(CN(c3ccc(OC(F)(F)F)cn3)C(=O)N2CC2(O)CCC2)C1 [SC-27, Cis-2-(dimethylamino)-2-(3-fluorophenyl)-5-((1-hydroxycyclobutyl)methyl)-7-(5-(trifluoromethoxy)pyridin-2-yl)-5,7-diazaspiro[3.4]octan-6-one]
- Ki [1, 3]: 12 nM
- Ki [2, 5]: 335 nM

Compound: CN(C)[C@]1(c2cccc(F)c2)C[C@@]2(CN(c3ccc(C(C)(C)O)cc3)C(=O)N2CC2CC2)C1 [SC-28, Cis-5-(cyclopropylmethyl)-2-(dimethylamino)-2-(3-fluorophenyl)-7-(4-(2-hydroxypropan-2-yl)phenyl)-5,7-diazaspiro[3.4]octan-6-one]
- Ki [1, 3]: 46 nM
- Ki [2, 5]: 78 nM

Compound: CN(C)[C@]1(c2ccccc2)C[C@@]2(CN(c3ccc(OC(F)(F)F)cn3)C(=O)N2CC2(F)COC2)C1 [SC-29, Cis-2-(dimethylamino)-5-((3-fluorooxetan-3-yl)methyl)-2-phenyl-7-(5-(trifluoromethoxy)pyridin-2-yl)-5,7-diazaspiro[3.4]octan-6-one]
- Ki [1, 3]: 16 nM
- Ki [2, 5]: 65 nM
